Key:
[1] = biological target: Receptor tyrosine-protein kinase erbB-2 (Homo sapiens, UniProt P04626); experiment: biochemical; assay type: cell-based, Insect cells; conditions: insect cells;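 note: inhibition of HER2 kinase enzyme activity, measured with Poly(Glu:Tyr) as the phosphorylation substrate; in other assays of this panel Not Active means under 50% inhibition at 10 µM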
D(4) dopamine receptor = biological target: T1, D(4) dopamine receptor (Homo sapiens, UniProt P21917); experiment: DRUGMATRIX: Dopamine D4.2 radioligand binding (ligand: [3H] Spiperone); assay type: cell membranes, CHO-K1, Membrane; conditions: cho-k1; Not Active = under 50% inhibition at 10 µM
T1 sequence (P21917 whole entry): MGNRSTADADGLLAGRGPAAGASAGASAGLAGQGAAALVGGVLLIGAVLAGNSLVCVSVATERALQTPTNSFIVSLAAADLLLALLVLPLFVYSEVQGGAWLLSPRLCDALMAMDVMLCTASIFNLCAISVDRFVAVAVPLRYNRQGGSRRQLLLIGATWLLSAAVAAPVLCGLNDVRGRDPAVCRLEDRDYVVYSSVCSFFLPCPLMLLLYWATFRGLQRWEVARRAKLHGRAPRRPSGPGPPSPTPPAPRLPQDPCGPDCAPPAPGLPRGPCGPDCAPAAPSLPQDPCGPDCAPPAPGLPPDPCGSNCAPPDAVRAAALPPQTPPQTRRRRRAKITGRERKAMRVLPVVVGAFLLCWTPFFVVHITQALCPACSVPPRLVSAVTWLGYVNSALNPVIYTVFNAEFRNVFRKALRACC

[2] = DRUGMATRIX: Phosphodiesterase PDE4 enzyme inhibition (substrate: [3H]cAMP + cAMP); conditions: u-937, Not Active = under 50% inhibition at 10 µM
[3] = biological target: Protein kinase C alpha type (Homo sapiens, UniProt P17252); assay type: cell-based; conditions: sf9;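 note: inhibition of PKCalpha kinase activity measured in an enzyme assay with histone as the phosphorylation substrate; in other assays of this panel Not Active means under 50% inhibition at 10 µM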
Vasopressin V1a receptor = Vasopressin V1a receptor (Homo sapiens, UniProt P37288); assay type: cell membranes, Membrane; conditions: hek293; note: in other assays of this panel Not Active means under 50% inhibition at 10 µM
[4] = biological target: Protein phosphatase 3 catalytic subunit alpha (Homo sapiens, UniProt Q08209); set-up: species or system Escherichia coli;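 note: inhibition of calcineurin (PP2B) enzyme activity, measured with DiFMUP as the substrate; in other assays of this panel Not Active means under 50% inhibition at 10 µM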
[5] = biological target: Prostaglandin G/H synthase 1 (Homo sapiens, UniProt P23219); experiment: biochemical; assay type: tissue-based, Platelet
Caspase-1 = biological target: T2, Caspase-1 (Homo sapiens, UniProt P29466); set-up: species or system Escherichia coli
T2 sequence (P29466 whole entry): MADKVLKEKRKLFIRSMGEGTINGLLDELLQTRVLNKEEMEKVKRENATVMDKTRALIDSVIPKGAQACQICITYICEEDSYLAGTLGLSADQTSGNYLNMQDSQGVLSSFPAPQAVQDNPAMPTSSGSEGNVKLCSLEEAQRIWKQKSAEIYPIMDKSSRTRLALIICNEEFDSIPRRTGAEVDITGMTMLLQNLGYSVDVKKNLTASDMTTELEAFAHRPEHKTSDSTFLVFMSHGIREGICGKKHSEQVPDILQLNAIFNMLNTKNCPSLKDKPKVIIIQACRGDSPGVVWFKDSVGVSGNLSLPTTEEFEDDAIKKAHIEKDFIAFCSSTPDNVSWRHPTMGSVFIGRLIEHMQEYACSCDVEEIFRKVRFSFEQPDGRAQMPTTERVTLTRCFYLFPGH

Prostaglandin G/H synthase 1, sequence (P23219 whole entry): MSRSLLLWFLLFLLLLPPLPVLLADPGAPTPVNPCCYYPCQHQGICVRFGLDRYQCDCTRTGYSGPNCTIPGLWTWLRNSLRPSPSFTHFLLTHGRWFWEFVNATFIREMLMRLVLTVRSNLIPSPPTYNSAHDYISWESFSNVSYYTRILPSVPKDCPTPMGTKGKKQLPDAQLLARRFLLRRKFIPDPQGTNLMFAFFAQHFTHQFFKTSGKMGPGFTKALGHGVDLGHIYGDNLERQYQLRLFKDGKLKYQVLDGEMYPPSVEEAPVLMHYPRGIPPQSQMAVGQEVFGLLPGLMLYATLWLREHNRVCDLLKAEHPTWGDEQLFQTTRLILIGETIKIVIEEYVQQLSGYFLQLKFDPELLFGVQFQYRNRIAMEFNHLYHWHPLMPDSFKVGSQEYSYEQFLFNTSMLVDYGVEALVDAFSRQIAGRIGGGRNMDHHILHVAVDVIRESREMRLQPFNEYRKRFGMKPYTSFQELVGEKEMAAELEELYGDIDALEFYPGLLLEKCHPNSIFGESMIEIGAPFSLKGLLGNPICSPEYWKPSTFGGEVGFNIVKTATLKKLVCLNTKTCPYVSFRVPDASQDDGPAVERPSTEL
Vasopressin V1a receptor, sequence (P37288 whole entry): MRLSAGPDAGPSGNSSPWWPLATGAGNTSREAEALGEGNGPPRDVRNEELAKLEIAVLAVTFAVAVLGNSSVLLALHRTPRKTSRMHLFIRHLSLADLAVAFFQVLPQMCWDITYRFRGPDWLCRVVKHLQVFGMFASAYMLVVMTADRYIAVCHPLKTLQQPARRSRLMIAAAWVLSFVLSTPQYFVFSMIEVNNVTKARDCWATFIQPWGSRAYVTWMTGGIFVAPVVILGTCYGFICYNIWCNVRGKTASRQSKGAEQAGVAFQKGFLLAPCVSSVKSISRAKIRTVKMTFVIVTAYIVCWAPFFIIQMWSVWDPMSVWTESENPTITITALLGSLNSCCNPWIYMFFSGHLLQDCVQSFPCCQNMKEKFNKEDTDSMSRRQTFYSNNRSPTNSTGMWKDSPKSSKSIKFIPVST
Receptor tyrosine-protein kinase erbB-2, sequence (P04626 whole entry): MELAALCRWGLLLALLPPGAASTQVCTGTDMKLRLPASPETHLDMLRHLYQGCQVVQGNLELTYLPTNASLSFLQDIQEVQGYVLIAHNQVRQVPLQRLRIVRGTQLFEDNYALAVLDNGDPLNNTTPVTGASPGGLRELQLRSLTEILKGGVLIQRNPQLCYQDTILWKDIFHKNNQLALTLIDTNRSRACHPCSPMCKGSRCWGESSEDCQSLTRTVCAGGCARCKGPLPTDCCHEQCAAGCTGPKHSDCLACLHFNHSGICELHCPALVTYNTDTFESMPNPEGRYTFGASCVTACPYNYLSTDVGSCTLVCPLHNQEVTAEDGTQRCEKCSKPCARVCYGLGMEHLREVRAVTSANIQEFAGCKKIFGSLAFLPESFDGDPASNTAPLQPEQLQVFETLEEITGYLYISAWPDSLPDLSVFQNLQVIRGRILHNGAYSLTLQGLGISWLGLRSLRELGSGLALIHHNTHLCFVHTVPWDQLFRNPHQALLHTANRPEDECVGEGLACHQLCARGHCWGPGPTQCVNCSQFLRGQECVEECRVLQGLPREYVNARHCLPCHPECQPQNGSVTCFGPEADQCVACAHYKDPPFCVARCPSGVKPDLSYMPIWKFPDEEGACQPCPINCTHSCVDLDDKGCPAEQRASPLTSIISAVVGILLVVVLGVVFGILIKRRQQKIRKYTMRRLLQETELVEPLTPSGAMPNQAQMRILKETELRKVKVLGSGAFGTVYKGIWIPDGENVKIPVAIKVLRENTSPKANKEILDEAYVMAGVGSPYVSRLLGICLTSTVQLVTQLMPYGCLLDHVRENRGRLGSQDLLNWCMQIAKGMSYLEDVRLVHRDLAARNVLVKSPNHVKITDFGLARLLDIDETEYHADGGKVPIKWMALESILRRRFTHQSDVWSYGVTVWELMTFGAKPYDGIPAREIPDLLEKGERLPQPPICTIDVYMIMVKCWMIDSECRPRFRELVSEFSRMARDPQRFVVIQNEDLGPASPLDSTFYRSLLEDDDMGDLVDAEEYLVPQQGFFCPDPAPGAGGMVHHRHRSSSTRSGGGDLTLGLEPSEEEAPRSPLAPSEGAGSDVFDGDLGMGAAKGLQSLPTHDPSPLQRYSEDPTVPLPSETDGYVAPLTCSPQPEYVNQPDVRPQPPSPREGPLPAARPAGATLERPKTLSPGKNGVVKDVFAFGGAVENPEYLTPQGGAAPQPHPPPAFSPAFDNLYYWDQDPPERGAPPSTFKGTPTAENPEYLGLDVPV

Row | Compound | IC50 [1] | IC50 (D(4) dopamine receptor) | IC50 [2] | Ki [2] | IC50 [3] | IC50 (Vasopressin V1a receptor) | IC50 [4] | IC50 ([5]; platelet) | IC50 (Caspase-1) | IC50 ([2]; read-out: IC50) | IC50 ([5]; read-out: IC50)
1 | CO[C@@]1(NC(=O)CSCC#N)C(=O)N2C(C(=O)O)=C(CSc3nnnn3C)CS[C@@H]21 [CEFMETAZOLE] | Not Active | Not Active | Not Active | Not Active | Not Active | Not Active | Not Active | Not Active | Not Active |  | 
2 | CN(C(=O)CCCOc1ccc2[nH]c(=O)ccc2c1)C1CCCCC1 [CILOSTAMIDE] | Not Active | Not Active | Not Active | Not Active | Not Active | Not Active | Not Active | Not Active | Not Active |  | 
3 | CC(C)(Oc1ccc(C2CC2(Cl)Cl)cc1)C(=O)O (stereo not given) [CIPROFIBRATE] | Not Active | Not Active | Not Active | Not Active | Not Active | Not Active | Not Active | Not Active | Not Active |  | 
4 | Nc1nc(Cl)nc2c1ncn2[C@H]1C[C@H](O)[C@@H](CO)O1 [CLADRIBINE] | Not Active | Not Active |  |  | Not Active | Not Active | Not Active | Not Active | Not Active | 3620 nM | 
5 | CC[C@H]1OC(=O)[C@H](C)[C@@H](O[C@H]2C[C@@](C)(OC)[C@@H](O)[C@H](C)O2)[C@H](C)[C@@H](O[C@@H]2O[C@H](C)C[C@H](N(C)C)[C@H]2O)[C@](C)(OC)C[C@@H](C)C(=O)[C@H](C)[C@@H](O)[C@]1(C)O [CLARITHROMYCIN] | Not Active | Not Active | Not Active | Not Active | Not Active | Not Active | Not Active | Not Active | Not Active |  | 
6 | CCC[C@@H]1C[C@@H](C(=O)N[C@@H]([C@H]2O[C@H](SC)[C@H](O)[C@@H](O)[C@H]2O)[C@H](C)Cl)N(C)C1 [CLINDAMYCIN] | Not Active | Not Active | Not Active | Not Active | Not Active | Not Active | Not Active | Not Active | Not Active |  | 
7 | O=C(O)c1cc(=O)c2c(OCC(O)COc3cccc4oc(C(=O)O)cc(=O)c34)cccc2o1 [CROMOLYN] | Not Active | Not Active | Not Active | Not Active | Not Active | Not Active | Not Active | Not Active | Not Active |  | 
8 | O=P1(N(CCCl)CCCl)NCCCO1 (stereo not given) [CYCLOPHOSPHAMIDE ANHYDROUS] | Not Active | Not Active | Not Active | Not Active | Not Active | Not Active | Not Active | Not Active | Not Active |  | 
9 | CC(=O)O[C@]1(C(C)=O)CC[C@H]2[C@@H]3C=C(Cl)C4=CC(=O)[C@@H]5C[C@@H]5[C@]4(C)[C@H]3CC[C@@]21C [CYPROTERONE ACETATE] | Not Active | Not Active | Not Active | Not Active | Not Active | Not Active | Not Active | Not Active | Not Active |  | 
10 | Nc1nc(N)nc(NC2CC2)n1 [CYROMAZINE] | Not Active | Not Active | Not Active | Not Active | Not Active | Not Active | Not Active | Not Active | Not Active |  | 
11 | C#C[C@]1(O)CC[C@H]2[C@@H]3CCC4=Cc5oncc5C[C@]4(C)[C@H]3CC[C@@]21C [DANAZOL] | Not Active | Not Active | Not Active | Not Active | Not Active | Not Active | Not Active | Not Active | Not Active |  | 
12 | CCN[C@@H](C)Cc1cccc(C(F)(F)F)c1 [DEXFENFLURAMINE] | Not Active | Not Active | Not Active | Not Active | Not Active | Not Active | Not Active | Not Active | Not Active |  | 
13 | CN1C(=O)CN=C(c2ccccc2)c2cc(Cl)ccc21 [DIAZEPAM] | Not Active | Not Active | Not Active | Not Active | Not Active | Not Active | Not Active | Not Active | Not Active |  | 
14 | CN1C[C@H](C(=O)N[C@]2(C)O[C@@]3(O)[C@@H]4CCCN4C(=O)[C@H](Cc4ccccc4)N3C2=O)C[C@@H]2c3cccc4[nH]cc(c34)C[C@H]21 [DIHYDROERGOTAMINE] | Not Active | Not Active | Not Active | Not Active | Not Active | Not Active | Not Active | Not Active | Not Active |  | 
15 | Cc1c(N(C)CS(=O)(=O)[O-])c(=O)n(-c2ccccc2)n1C.[Na+] [DIPYRONE SODIUM] | Not Active | Not Active | Not Active | Not Active | Not Active | Not Active | Not Active | Not Active | Not Active |  | 
16 | CC(CCc1ccc(O)cc1)NCCc1ccc(O)c(O)c1 (stereo not given) [DOBUTAMINE] | Not Active | Not Active | Not Active | Not Active | Not Active | Not Active | Not Active | Not Active | Not Active |  | 
17 | CCn1cc(C(=O)O)c(=O)c2cc(F)c(N3CCNCC3)nc21 [ENOXACIN] | Not Active | Not Active | Not Active | Not Active | Not Active | Not Active | Not Active | Not Active | Not Active |  | 
18 | CCC(=O)O[C@H]1[C@H](O[C@@H]2[C@@H](C)[C@H](O[C@H]3C[C@@](C)(OC)[C@@H](O)[C@H](C)O3)[C@@H](C)C(=O)O[C@H](CC)[C@@](C)(O)[C@H](O)[C@@H](C)C(=O)[C@H](C)C[C@@]2(C)O)O[C@H](C)C[C@@H]1N(C)C [ERYTHROMYCIN PROPIONATE] | Not Active | Not Active | Not Active | Not Active | Not Active | Not Active | Not Active | Not Active | Not Active |  | 
19 | C=C(CC)C(=O)c1ccc(OCC(=O)O)c(Cl)c1Cl [ETHACRYNIC ACID] | Not Active | Not Active | Not Active | Not Active | Not Active | Not Active | Not Active | Not Active | Not Active |  | 
20 | C#C[C@]1(O)CC[C@H]2[C@@H]3CCc4cc(O)ccc4[C@H]3CC[C@@]21C [ETHINYL ESTRADIOL] | Not Active | Not Active | Not Active | Not Active | Not Active | Not Active | Not Active | Not Active | Not Active |  | 
21 | OCCO [ETHYLENE GLYCOL] | Not Active | Not Active | Not Active | Not Active | Not Active | Not Active | Not Active | Not Active | Not Active |  | 
22 | CC(=O)OCC(CCn1cnc2cnc(N)nc21)COC(C)=O [FAMCICLOVIR] | Not Active | Not Active | Not Active | Not Active | Not Active | Not Active | Not Active | Not Active | Not Active |  | 
23 | O=C(O)Cc1ccc(-c2ccccc2)cc1 [FELBINAC] | Not Active | Not Active | Not Active | Not Active | Not Active | Not Active | Not Active |  | Not Active |  | 894 nM
24 | CCOC(=O)C1=C(C)NC(C)=C(C(=O)OC)C1c1cccc(Cl)c1Cl (stereo not given) [FELODIPINE] | Not Active | Not Active | Not Active | Not Active | Not Active | Not Active | Not Active | Not Active | Not Active |  | 

From ChEMBL document CHEMBL1909046, “DrugMatrix in vitro pharmacology data”
